Holding throughout (assay type): biochemical
One test has as its target T1, hMMP 13 (Homo sapiens, UniProt P45452).
T1 construct: purchased R&D systems
Description: Residual enzyme activity of other metalloproteases. As to conditions: read-out: Residual enzyme activity MMP13; for remaining activity at 10 µM: 10 μM inhibitor; for remaining activity at 200 µM: 200 μM inhibitor. Here is the method:
(§1) A typical assay of 250 μl total volume measured in black 96 well plates consisted of 100 μl buffer, 50 μl enzyme at a final concentration of 5e-8 M to 2e-10 M, 50 μl substrate (0.15 to 80 μM, in buffer, 0.5% DMSO) and 50 μl inhibitor solution (in buffer, 1% DMSO). In case of 125 μl assay volume (black 96 half area well plates) all volumes were cut in half. Enzymatic activity of ADAMs was measured in 384 well plates with 60 μl total assay volume consisting of 20 μl inhibitor, 20 μl buffer, 10 μl enzyme and 10 μl substrate.
(§2) MMPs were activated prior to measurement by APMA (p-aminophenylmercuric acetate) treatment according to manufacturer's instructions (R&D systems).

For a further test, the target named is T2, hMMP 2 (Homo sapiens, UniProt P08253).
T2 construct: purchased Abnova
T2 sequence (P08253 110-660): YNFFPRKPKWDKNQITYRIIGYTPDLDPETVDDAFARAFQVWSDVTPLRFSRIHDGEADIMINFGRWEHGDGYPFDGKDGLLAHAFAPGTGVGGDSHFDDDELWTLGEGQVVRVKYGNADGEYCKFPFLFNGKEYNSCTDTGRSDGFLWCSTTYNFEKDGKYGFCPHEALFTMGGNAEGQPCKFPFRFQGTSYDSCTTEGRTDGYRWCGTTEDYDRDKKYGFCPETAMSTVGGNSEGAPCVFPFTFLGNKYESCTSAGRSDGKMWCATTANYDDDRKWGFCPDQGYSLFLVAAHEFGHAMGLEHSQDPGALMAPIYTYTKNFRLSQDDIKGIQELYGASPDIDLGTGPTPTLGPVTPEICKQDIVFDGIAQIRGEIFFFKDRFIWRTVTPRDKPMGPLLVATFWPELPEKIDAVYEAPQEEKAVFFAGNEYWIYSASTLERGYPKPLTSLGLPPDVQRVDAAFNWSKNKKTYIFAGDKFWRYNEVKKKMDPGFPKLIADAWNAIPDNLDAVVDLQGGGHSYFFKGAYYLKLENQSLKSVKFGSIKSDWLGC
Description: Residual enzyme activity of other metalloproteases. As to conditions: read-out: Residual enzyme activity MMP2; for remaining activity at 10 µM: 10 μM inhibitor; for remaining activity at 200 µM: 200 μM inhibitor. How it is done:
as §1, §2

In the next test the target is T3, hMMP 9 (Homo sapiens, UniProt P14780).
T3 construct: purchased R&D systems
T3 sequence (P14780 107-707 limits assumed): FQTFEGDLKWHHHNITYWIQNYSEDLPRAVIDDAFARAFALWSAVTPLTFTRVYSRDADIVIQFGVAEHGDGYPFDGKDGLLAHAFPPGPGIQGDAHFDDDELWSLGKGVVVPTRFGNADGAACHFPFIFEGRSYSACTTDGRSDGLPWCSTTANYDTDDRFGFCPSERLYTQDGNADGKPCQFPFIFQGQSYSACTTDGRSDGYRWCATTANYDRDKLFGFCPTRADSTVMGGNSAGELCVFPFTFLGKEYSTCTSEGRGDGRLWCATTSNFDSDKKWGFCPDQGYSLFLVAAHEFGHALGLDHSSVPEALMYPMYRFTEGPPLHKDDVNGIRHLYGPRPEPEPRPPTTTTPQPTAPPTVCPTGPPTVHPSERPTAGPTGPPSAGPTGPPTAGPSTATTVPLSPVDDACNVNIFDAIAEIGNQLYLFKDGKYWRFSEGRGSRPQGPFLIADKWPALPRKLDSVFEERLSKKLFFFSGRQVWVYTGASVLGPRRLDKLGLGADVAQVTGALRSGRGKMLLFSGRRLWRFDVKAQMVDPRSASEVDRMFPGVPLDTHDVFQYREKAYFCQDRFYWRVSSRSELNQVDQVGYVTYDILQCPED
Description: Residual enzyme activity of other metalloproteases. As to conditions: read-out: Residual enzyme activity MMP9; for remaining activity at 10 µM: 10 μM inhibitor; for remaining activity at 200 µM: 200 μM inhibitor. How it is done: as §1, with “The determination of enzymatic activity was based on the cleavage of internally quenched peptide substrates. A typical” for “A typical”
as §2

In a further test the target is T4, hADAM 10 (Homo sapiens, UniProt O14672).
T4 construct: purchased R&D systems
T4 sequence (O14672 214-748): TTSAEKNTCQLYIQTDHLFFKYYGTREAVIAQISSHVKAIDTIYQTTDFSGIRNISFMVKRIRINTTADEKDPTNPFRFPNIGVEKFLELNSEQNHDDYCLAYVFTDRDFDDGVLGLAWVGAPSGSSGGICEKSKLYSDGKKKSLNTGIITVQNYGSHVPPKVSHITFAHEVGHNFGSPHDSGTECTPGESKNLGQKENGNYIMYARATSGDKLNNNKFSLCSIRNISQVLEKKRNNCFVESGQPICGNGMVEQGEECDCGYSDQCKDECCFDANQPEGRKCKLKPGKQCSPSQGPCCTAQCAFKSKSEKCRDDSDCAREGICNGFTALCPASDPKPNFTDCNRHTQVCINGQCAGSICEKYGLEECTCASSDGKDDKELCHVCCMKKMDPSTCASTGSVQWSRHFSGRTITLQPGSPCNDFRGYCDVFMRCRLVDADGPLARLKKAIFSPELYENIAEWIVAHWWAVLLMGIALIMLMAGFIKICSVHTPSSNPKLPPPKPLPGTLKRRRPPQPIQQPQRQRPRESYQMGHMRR
Description: Residual enzyme activity of other metalloproteases. As to conditions: read-out: Residual enzyme activity ADAM10; for remaining activity at 10 µM: 10 μM inhibitor; for remaining activity at 200 µM: 200 μM inhibitor. How it is done:
as §1, with “The determination of enzymatic activity was based on the cleavage of internally quenched peptide substrates. A typical” for “A typical”

A further test has as its target T5, hADAM 17 (Homo sapiens, UniProt P78536).
T5 construct: purchased R&D systems
Description: Residual enzyme activity of other metalloproteases. As to conditions: read-out: Residual enzyme activity ADAM17; for remaining activity at 10 µM: 10 μM inhibitor; for remaining activity at 200 µM: 200 μM inhibitor. How it is done:
as §1, with “The determination of enzymatic activity was based on the cleavage of internally quenched peptide substrates. A typical” for “A typical”

In a further test the target is T6, hMeprin α (Homo sapiens, UniProt Q16819).
T6 sequence (Q16819 66-746): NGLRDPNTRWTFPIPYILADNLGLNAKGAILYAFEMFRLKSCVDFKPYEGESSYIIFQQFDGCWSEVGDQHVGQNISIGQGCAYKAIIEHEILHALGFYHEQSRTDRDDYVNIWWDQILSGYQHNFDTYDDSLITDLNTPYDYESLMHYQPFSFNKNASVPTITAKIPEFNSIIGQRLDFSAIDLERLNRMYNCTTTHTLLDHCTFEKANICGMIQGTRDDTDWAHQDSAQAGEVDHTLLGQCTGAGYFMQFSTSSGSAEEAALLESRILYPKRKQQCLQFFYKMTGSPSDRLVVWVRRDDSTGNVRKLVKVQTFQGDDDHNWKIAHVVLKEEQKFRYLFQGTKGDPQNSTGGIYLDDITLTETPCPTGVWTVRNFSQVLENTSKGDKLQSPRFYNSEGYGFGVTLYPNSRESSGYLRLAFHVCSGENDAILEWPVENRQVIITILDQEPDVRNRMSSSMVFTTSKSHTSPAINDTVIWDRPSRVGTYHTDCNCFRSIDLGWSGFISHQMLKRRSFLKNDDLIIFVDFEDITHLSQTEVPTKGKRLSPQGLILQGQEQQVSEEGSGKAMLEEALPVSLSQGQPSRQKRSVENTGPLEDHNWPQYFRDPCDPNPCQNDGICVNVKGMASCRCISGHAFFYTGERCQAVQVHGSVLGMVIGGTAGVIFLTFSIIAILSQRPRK
Description: Enzymatic assay, quenched peptide substrate cleavage, method B. As to conditions: geometric mean (geometric SD factor in parentheses); for pKi: Morrison's equation, read-out: Meprin alpha Ki(app); for pIC50: read-out: Meprin alpha IC50. The method in brief:
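Cleavage of internally quenched peptides was read at 340/420 nm and 30° C., with enzyme at 5e-8 to 2e-10 M and substrate at 0.15–80 μM. Inhibitor solutions contained 1% DMSO and substrate 0.5% DMSO. Method B gave Ki(app) values via Morrison's equation, with kinetics measured in at least duplicate on separate days.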

One may read the pKi as the Ki on a negative log10 scale, so that one unit is a factor of ten. A word on the pIC50: it is the IC50 on a negative log10 scale, so that one unit is a factor of ten.

pIC50, pKi: −log10 of the molar value.

T5 sequence (P78536 215-824): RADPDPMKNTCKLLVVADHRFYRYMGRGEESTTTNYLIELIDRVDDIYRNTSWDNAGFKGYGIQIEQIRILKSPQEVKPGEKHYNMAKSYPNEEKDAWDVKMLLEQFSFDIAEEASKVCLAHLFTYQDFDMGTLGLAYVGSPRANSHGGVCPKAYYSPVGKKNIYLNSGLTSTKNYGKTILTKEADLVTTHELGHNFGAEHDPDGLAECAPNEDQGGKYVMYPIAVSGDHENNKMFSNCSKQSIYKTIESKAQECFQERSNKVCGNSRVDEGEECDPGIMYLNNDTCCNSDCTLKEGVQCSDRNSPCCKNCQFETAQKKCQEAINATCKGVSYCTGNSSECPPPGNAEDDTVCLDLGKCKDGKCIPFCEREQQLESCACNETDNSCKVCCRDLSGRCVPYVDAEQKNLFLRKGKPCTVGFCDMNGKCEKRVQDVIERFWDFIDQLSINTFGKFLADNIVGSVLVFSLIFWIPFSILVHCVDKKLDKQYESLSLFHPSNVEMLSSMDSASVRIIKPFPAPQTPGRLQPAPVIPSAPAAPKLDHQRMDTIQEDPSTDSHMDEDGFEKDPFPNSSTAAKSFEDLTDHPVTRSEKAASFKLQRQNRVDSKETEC

For the compound `O=C(Cn1c(-c2ccccc2)nnc1-c1ccccc1)NO` [Example 7, 2-(3,5-Diphenyl-1,2,4-triazol-4-yl)ethanehydroxamic acid], the remaining activity at 10 µM came out at 93% at hMMP 13; 95% on hMMP 2; 99% at hMMP 9; 89% at hADAM 10; 90% on hADAM 17. Besides, the remaining activity at 200 µM was 76% on hMMP 13; 70% at hMMP 2; 54% at hMMP 9; 83% at hADAM 10; 56% at hADAM 17.

Regarding `COc1ccc(-c2n[nH]c(-c3ccccc3)c2CC(=O)NO)cc1OC` [Example 49, 2-[3-(3,4-Dimethoxyphenyl)-5-phenyl-1H-pyrazol-4-yl]ethanehydroxamic acid], the negative logarithm of the Ki (pKi) on hMeprin α was 9.15. On hMeprin α, the pIC50 was 9.10. Moreover, the remaining activity at 10 µM amounted to 101% at hMMP 13; 83% at hMMP 2; 90% at hMMP 9; 87% on hADAM 10; 65% at hADAM 17. In addition, the remaining activity at 200 µM at hMMP 13 was determined as 18%; at hMMP 2, 26%; at hMMP 9, 44%; at hADAM 10 it was 13%; on hADAM 17, 6%.

`O=C(CCc1c(-c2ccccc2)noc1-c1ccccc1)NO` [Example 4, 3-(3,5-Diphenylisoxazol-4-yl)propanehydroxamic acid]: the remaining activity at 10 µM on hMMP 13 was determined as 79%; on hMMP 2, 98%; at hMMP 9 it was 89%; at hADAM 10, 75%; at hADAM 17, 75%. The remaining activity at 200 µM on hMMP 13 came to 66%; at hMMP 2, 74%; at hMMP 9, 39%; on hADAM 10, 21%; on hADAM 17, 24%.

Regarding `O=C(Cn1c(-c2ccccc2)ccc1-c1ccccc1)NO` [Example 9, 2-(2,5-Diphenylpyrrol-1-yl)ethanehydroxamic acid], the remaining activity at 10 µM at hMMP 13 is 79%; at hMMP 2 it was 83%; on hMMP 9 it was 92%; at hADAM 10 it was 83%; at hADAM 17 it was 82%. For the same compound, the remaining activity at 200 µM at hMMP 13 was found to be 5%; at hMMP 2, 1%; on hMMP 9, 1%; on hADAM 10 it was 29%; on hADAM 17, 25%.

Consider `COc1cccc(-c2n[nH]c(-c3ccccc3)c2CC(=O)NO)c1` [Example 47, 2-[3-(3-Methoxyphenyl)-5-phenyl-1H-pyrazol-4-yl]ethanehydroxamic acid], for which, at hMeprin α, the pKi was 9.00. Further, the negative logarithm of the IC50 (pIC50) at hMeprin α is 9.00. For the same compound, the remaining activity at 10 µM on hMMP 13 was 85%; on hMMP 2 it was 78%; at hMMP 9 it was 80%; at hADAM 10, 68%; at hADAM 17, 52%. For the same compound, the remaining activity at 200 µM at hMMP 13 was 28%; on hMMP 2, 17%; on hMMP 9, 33%; at hADAM 10, 8%; at hADAM 17, 6%.

For the compound `O=C(Cc1c(-c2ccccc2)noc1-c1ccccc1)NO` [Example 2, 2-(3,5-Diphenylisoxazol-4-yl)ethanehydroxamic acid], the pKi on hMeprin α is 8.40. Moreover, the pIC50 on hMeprin α is 8.40. For the same compound, the remaining activity at 10 µM on hMMP 13 is 80%; on hMMP 2 it was 87%; at hMMP 9 it was 86%; at hADAM 10 it was 80%; at hADAM 17, 62%. For the same compound, the remaining activity at 200 µM at hMMP 13 was 31%; on hMMP 2 it was 34%; at hMMP 9, 16%; at hADAM 10, 22%; on hADAM 17, 9%.

On to `O=C(Cn1c(-c2ccccc2)nc2ccccc21)NO` [Example 13, 2-(2-Phenylbenzimidazol-1-yl)ethanehydroxamic acid], for which, on hMeprin α, the pKi was 6.89. Moreover, the pIC50 at hMeprin α is 6.85. Further, the remaining activity at 10 µM came to 102% at hMMP 13; 89% at hMMP 2; 96% at hMMP 9; 87% at hADAM 10; 92% on hADAM 17. Moreover, the remaining activity at 200 µM on hMMP 13 turned out to be 72%; at hMMP 2, 46%; at hMMP 9, 68%; at hADAM 10 it was 76%; on hADAM 17, 56%.

With `O=C(Cn1c(-c2ccccc2)cc2ccccc21)NO` [Example 25, 2-(2-Phenylindol-1-yl)ethanehydroxamic acid], the remaining activity at 10 µM at hMMP 13 is 77%; on hMMP 2, 85%; at hMMP 9, 90%; on hADAM 10, 89%; at hADAM 17 it was 88%. Besides, the remaining activity at 200 µM on hMMP 13 was 54%; at hMMP 2, 41%; at hMMP 9, 53%; at hADAM 10, 68%; at hADAM 17, 56%.

The record behind these values is patent US20250388544A1, “HETEROAROMATIC INHIBITORS OF ASTACIN PROTEINASES” (VIVORYON THERAPEUTICS N.V., priority 2019, published 2025).
